Values joined by “and” are separate entries in the source; they are usually repeats but may differ in a detail not shown here. Identical values can stand only once.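 Test compounds were applied to cells in 96-well plates for 48 hours at 5 doses. GI50: concentration for 50% inhibition of growth. TGI marks complete inhibition of growth.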

Test systems include SNB-75 CNS; SK-MEL-2 melanoma; HCT-116 colon; SNB-19 CNS; NCI-H522 lung; HCC-2998 colon; UACC-62 melanoma; SN12C renal.
Test in all cases: inhibition of tumour cell growth, NCI panel, 48 h

On to `N#Cc1c(NCc2ccccc2)nc(NCc2ccccc2)c(C#N)c1-c1ccc(Cl)cc1`, for which the GI50 in the test on SNB-75 CNS was > 50 µM and 34.7 µM; in the test on HCT-116 colon, > 50 µM and 24.6 µM; in the test on SNB-19 CNS, > 50 µM and 40.9 µM; in the test with NCI-H522 lung, 31.7 µM; in the test on HCC-2998 colon, over 100 µM; with UACC-62 melanoma, > 50 µM and 37.8 µM. Besides, the GI50 with SN12C renal is > 50 µM and 36.2 µM. The TGI was over 100 µM in the test on SNB-75 CNS; > 50 µM and 30.4 µM with SK-MEL-2 melanoma; over 100 µM in the test on HCT-116 colon; over 100 µM in the test with SNB-19 CNS; over 100 µM in the test with NCI-H522 lung; over 100 µM in the test with HCC-2998 colon. The TGI in the test with UACC-62 melanoma and with SN12C renal was over 100 µM in each case.
Consider `CS(=O)(=O)N1CCC(n2c(=O)c(Oc3ccc(F)cc3F)cc3cnc(NC4CCOCC4)nc32)CC1`, for which the GI50 in the test on SNB-75 CNS, with SK-MEL-2 melanoma, in the test on HCT-116 colon, with SNB-19 CNS, in the test on NCI-H522 lung and with HCC-2998 colon was over 25 µM each time. For the same molecule, the GI50 in the test on UACC-62 melanoma and with SN12C renal was over 25 µM in each case. Also, the TGI with SNB-75 CNS, in the test with SK-MEL-2 melanoma, in the test on HCT-116 colon, with SNB-19 CNS, in the test on NCI-H522 lung and in the test on HCC-2998 colon was over 25 µM in each case. Moreover, the TGI in the test on UACC-62 melanoma and in the test with SN12C renal was over 25 µM each time.
With `CN1CC=C(c2cc(NC(=O)Nc3ccc(Oc4ccnc(NC(=O)C5CC5)c4)c(F)c3)cc(C(F)(F)F)c2)CC1`, the GI50 in the test with SNB-75 CNS is 1.53 µM; in the test on SK-MEL-2 melanoma, 1.13 µM; in the test on HCT-116 colon it was 0.167 µM; in the test on SNB-19 CNS, 0.227 µM; with NCI-H522 lung, 0.828 µM; in the test on HCC-2998 colon, 0.281 µM. In addition, the GI50 was 1.1 µM with UACC-62 melanoma and 0.159 µM in the test with SN12C renal. The TGI in the test on SNB-75 CNS came to 2.95 µM; in the test on SK-MEL-2 melanoma, 2.26 µM; with HCT-116 colon, 1.68 µM; in the test on SNB-19 CNS, 1.48 µM; with NCI-H522 lung, 1.84 µM; in the test on HCC-2998 colon, 1.97 µM. The TGI with UACC-62 melanoma came out at 2.25 µM; in the test on SN12C renal, 1.27 µM.
Turning to `CS(=O)(=O)CCNCc1ccc(-c2ccc3ncnc(Nc4ccc(OCc5cccc(F)c5)c(Cl)c4)c3c2)o1`, the GI50 in the test on SNB-75 CNS is > 10 µM and 4.33 µM and 8.75 µM; with SK-MEL-2 melanoma, > 10 µM and 2.46 µM and 5.9 µM; in the test with HCT-116 colon it was > 10 µM and 7.19 µM and 10.3 µM; in the test with SNB-19 CNS, > 10 µM and 99.6 µM and 17.7 µM; with NCI-H522 lung it was 0.28 µM and 0.397 µM and 0.815 µM; in the test on HCC-2998 colon, > 10 µM and 4.1 µM and 8.86 µM. Further, the GI50 is > 10 µM and 6.68 µM and 9.22 µM in the test on UACC-62 melanoma; > 10 µM and 9.1 µM with SN12C renal. Besides, the TGI in the test with SNB-75 CNS is > 10 µM and 35.5 µM and 44.2 µM; in the test on SK-MEL-2 melanoma, > 10 µM and 8.59 µM and 23.1 µM; in the test on HCT-116 colon, > 10 µM and > 100 µM and 23.6 µM; in the test with SNB-19 CNS, > 10 µM and > 100 µM and 66.7 µM; in the test on NCI-H522 lung, > 10 µM and > 100 µM and 28.9 µM; with HCC-2998 colon it was > 10 µM and 17.8 µM and 24.2 µM. Further, the TGI is > 10 µM and > 100 µM and 23.1 µM in the test with UACC-62 melanoma; > 10 µM and > 100 µM and 36.2 µM in the test on SN12C renal.
As to `Fc1cc(F)c(F)c(S)c1F`, the TGI was over 100 µM with SNB-75 CNS; over 100 µM in the test with SK-MEL-2 melanoma; over 100 µM in the test on HCT-116 colon; over 100 µM with SNB-19 CNS; 37.8 µM in the test on NCI-H522 lung; over 100 µM in the test with HCC-2998 colon. Also, the TGI is over 100 µM in the test on UACC-62 melanoma and 43.8 µM in the test with SN12C renal.
As to `OCc1ccc(-c2csc(-c3ccc(CO)o3)c2)o1`, the GI50 in the test with SNB-75 CNS is over 55.3 µM; in the test with SK-MEL-2 melanoma, 40.9 µM; in the test on HCT-116 colon, 5.71 µM; in the test on SNB-19 CNS, over 76.4 µM; in the test on NCI-H522 lung, 43.6 µM; with HCC-2998 colon, 40.4 µM. Also, the values for the GI50 in the test with UACC-62 melanoma and with SN12C renal were 0.767 µM and 88.7 µM, respectively. For the same molecule, the TGI with SNB-75 CNS, with SK-MEL-2 melanoma, in the test with HCT-116 colon, in the test on SNB-19 CNS, in the test on NCI-H522 lung and in the test with HCC-2998 colon was over 100 µM throughout. In addition, the TGI with UACC-62 melanoma is 33.7 µM; with SN12C renal, over 100 µM.
For `NC(=O)c1cccc2c(N[C@H](CN3CCC3)c3ccc(Cl)c(C(F)(F)F)c3)ncnc12`, the GI50 was 0.0506 µM in the test on SNB-75 CNS; 1.96 µM in the test on SK-MEL-2 melanoma; 2.32 µM in the test on HCT-116 colon; 1.19 µM in the test with SNB-19 CNS; 5.1 µM in the test with NCI-H522 lung; 1.17 µM in the test with HCC-2998 colon. In addition, the results for the GI50 in the test with UACC-62 melanoma and in the test on SN12C renal were 1.13 µM and 2.11 µM, respectively. Also, the TGI stood at 0.918 µM in the test on SNB-75 CNS; 9.74 µM in the test with SK-MEL-2 melanoma; 11.7 µM in the test on HCT-116 colon; 11.4 µM with SNB-19 CNS; 20.3 µM in the test on NCI-H522 lung; 2.88 µM in the test on HCC-2998 colon. The TGI with UACC-62 melanoma was determined as 8.62 µM; in the test on SN12C renal, 13.9 µM.
In the case of `O=C(c1ccccc1)C(Cl)C(Cl)c1ccccc1` (stereo not drawn), the GI50 is 11.2 µM in the test with SNB-75 CNS; 3.55 µM with SK-MEL-2 melanoma; 1.44 µM in the test with HCT-116 colon; 6.85 µM in the test with SNB-19 CNS; 1.7 µM in the test on NCI-H522 lung; 2 µM with HCC-2998 colon. For the same molecule, the results for the GI50 with UACC-62 melanoma and in the test on SN12C renal were 1.69 µM and 2.1 µM, respectively. Moreover, the TGI in the test on SNB-75 CNS came to 23.3 µM; in the test on SK-MEL-2 melanoma, 9.33 µM; in the test on HCT-116 colon, 2.95 µM; in the test with SNB-19 CNS, 21.2 µM; in the test with NCI-H522 lung, 3.42 µM; in the test on HCC-2998 colon it was 3.56 µM. The TGI with UACC-62 melanoma was found to be 3.69 µM; with SN12C renal it was 5.95 µM.
Turning to `COC(=O)C12CCC(C)(C)CC1C1=CCC3C4(C)CC(O)C(O)C(C)(C(=O)OC)C4CCC3(C)C1(CO)CC2` (stereo not drawn), the TGI came out at 25.3 µM in the test with SNB-75 CNS; 28.2 µM in the test with SK-MEL-2 melanoma; 27.4 µM with HCT-116 colon; 37 µM in the test on SNB-19 CNS; 35.2 µM in the test on NCI-H522 lung; 27.2 µM with HCC-2998 colon. The TGI in the test on UACC-62 melanoma came to 28.9 µM; with SN12C renal it was 33.2 µM.
As to `O=C(Cn1c(C(=O)c2ccc(Cl)cc2)nc(-c2ccc(Cl)cc2)c1-c1ccc(Cl)cc1)c1ccccc1`, the GI50 in the test on SNB-75 CNS, in the test with SK-MEL-2 melanoma, in the test on HCT-116 colon, in the test on SNB-19 CNS, in the test on NCI-H522 lung and with HCC-2998 colon was over 100 µM each time. The GI50 with UACC-62 melanoma and in the test on SN12C renal was over 100 µM in each case. The TGI in the test with SNB-75 CNS, with SK-MEL-2 melanoma, with HCT-116 colon, with SNB-19 CNS, in the test with NCI-H522 lung and in the test on HCC-2998 colon was over 100 µM throughout. The TGI in the test with UACC-62 melanoma and in the test with SN12C renal was over 100 µM throughout.

These data come from PubChem BioAssay (NCI).
